Test: xn = mol fraction of the nth substance listed
Settings: 101 kPa, Liquid; for mass density: Vibrating tube method; for speed of sound: sound velocity cell

CC(=O)[O-].[NH3+]CCO [2-hydroxyethylammonium acetate] + CCO
Settings	mass density [kg/m3]	speed of sound [m/s]
288.15 K, x1 = 0.0497	830.092	1219.7
288.15 K, x1 = 0.101	862.917	1257.7
288.15 K, x1 = 0.201	917.271	1327
288.15 K, x1 = 0.3009	964.134	1410
288.15 K, x1 = 0.4057	1005.85	1470.2
288.15 K, x1 = 0.4946	1036.29	1529.9
288.15 K, x1 = 0.603	1068.79	1601.6
288.15 K, x1 = 0.6765	1088.47	1646.3
288.15 K, x1 = 0.7918	1116.27	1707.9
288.15 K, x1 = 0.8825	1135.66	1756.7
288.15 K, x1 = 0.9539	1148.76	1806.7
288.15 K, x1 = 1	1154.7	1817.2
290.65 K, x1 = 0.0497	828.024	1211.3
290.65 K, x1 = 0.101	860.918	1249.6
290.65 K, x1 = 0.201	915.381	1319.3
290.65 K, x1 = 0.3009	962.336	1402.9
290.65 K, x1 = 0.4057	1004.14	1463.2
290.65 K, x1 = 0.4946	1034.64	1523
290.65 K, x1 = 0.603	1067.23	1594.9
290.65 K, x1 = 0.6765	1086.9	1639.6
290.65 K, x1 = 0.7918	1114.76	1700.5
290.65 K, x1 = 0.8825	1134.02	1749.4
290.65 K, x1 = 0.9539	1147.23	1796
290.65 K, x1 = 1	1153.28	1810
293.15 K, x1 = 0.0497	825.955	1203
293.15 K, x1 = 0.101	858.918	1241.5
293.15 K, x1 = 0.201	913.49	1311.7
293.15 K, x1 = 0.3009	960.535	1395.7
293.15 K, x1 = 0.4057	1002.43	1456.2
293.15 K, x1 = 0.4946	1033	1516.3
293.15 K, x1 = 0.603	1065.67	1588.4
293.15 K, x1 = 0.6765	1085.33	1633.2
293.15 K, x1 = 0.7918	1113.26	1693.3
293.15 K, x1 = 0.8825	1132.52	1741.7
293.15 K, x1 = 0.9539	1145.67	1786.6
293.15 K, x1 = 1	1151.87	1803.2
295.65 K, x1 = 0.0497	823.881	1194.7
295.65 K, x1 = 0.101	856.913	1233.5
295.65 K, x1 = 0.201	911.596	1304
295.65 K, x1 = 0.3009	958.737	1388.5
295.65 K, x1 = 0.4057	1000.73	1449.2
295.65 K, x1 = 0.4946	1031.36	1509.6
295.65 K, x1 = 0.603	1064.1	1582
295.65 K, x1 = 0.6765	1083.81	1626.8
295.65 K, x1 = 0.7918	1111.76	1686.5
295.65 K, x1 = 0.8825	1131.06	1734.5
295.65 K, x1 = 0.9539	1144.09	1778
295.65 K, x1 = 1	1150.45	1796.8
298.15 K, x1 = 0.0497	821.798	1186.5
298.15 K, x1 = 0.101	854.902	1225.5
298.15 K, x1 = 0.201	909.701	1296.4
298.15 K, x1 = 0.3009	956.936	1381.3
298.15 K, x1 = 0.4057	999.015	1442.3
298.15 K, x1 = 0.4946	1029.72	1502.9
298.15 K, x1 = 0.603	1062.53	1575.6
298.15 K, x1 = 0.6765	1082.31	1620.4
298.15 K, x1 = 0.7918	1110.26	1679.8
298.15 K, x1 = 0.8825	1129.61	1727.5
298.15 K, x1 = 0.9539	1142.5	1769.9
298.15 K, x1 = 1	1149.04	1790.7
300.65 K, x1 = 0.0497	819.712	1178.2
300.65 K, x1 = 0.101	852.887	1217.5
300.65 K, x1 = 0.201	907.8	1288.8
300.65 K, x1 = 0.3009	955.132	1374.2
300.65 K, x1 = 0.4057	997.306	1435.3
300.65 K, x1 = 0.4946	1028.07	1496.2
300.65 K, x1 = 0.603	1060.96	1569.2
300.65 K, x1 = 0.6765	1080.8	1614.2
300.65 K, x1 = 0.7918	1108.76	1673.3
300.65 K, x1 = 0.8825	1128.15	1720.9
300.65 K, x1 = 0.9539	1141.04	1762.4
300.65 K, x1 = 1	1147.63	1784.8
303.15 K, x1 = 0.0497	817.614	1170
303.15 K, x1 = 0.101	850.864	1209.5
303.15 K, x1 = 0.201	905.897	1281.2
303.15 K, x1 = 0.3009	953.327	1367
303.15 K, x1 = 0.4057	995.593	1428.4
303.15 K, x1 = 0.4946	1026.43	1489.6
303.15 K, x1 = 0.603	1059.37	1562.8
303.15 K, x1 = 0.6765	1079.28	1608
303.15 K, x1 = 0.7918	1107.26	1667
303.15 K, x1 = 0.8825	1126.69	1714.5
303.15 K, x1 = 0.9539	1139.62	1755.4
303.15 K, x1 = 1	1146.22	1779
305.65 K, x1 = 0.0497	815.509	–
305.65 K, x1 = 0.101	848.835	–
305.65 K, x1 = 0.201	903.988	–
305.65 K, x1 = 0.3009	951.519	–
305.65 K, x1 = 0.4057	993.881	–
305.65 K, x1 = 0.4946	1024.78	–
305.65 K, x1 = 0.603	1057.78	–
305.65 K, x1 = 0.6765	1077.76	–
305.65 K, x1 = 0.7918	1105.75	–
305.65 K, x1 = 0.8825	1125.23	–
305.65 K, x1 = 0.9539	1138.2	–
305.65 K, x1 = 1	1144.8	–
